In patent publication EP4556003A1, “ANTI-OBESITY AND ANTI-DIABETIC ACTIVITY OF BROMINATED DITERPENES FROM RED ALGAE OF THE GENUS LAURENCIA AND APPLICATIONS THEREOF” (priority 2023, dated 2025):

Key:
[1] = system: 3T3-L1 cells; experiment: MTT cell viability / proliferation assay; type: cell-based, Mouse
Experimental: The cell viability was evaluated using the MTT assay. 3T3-L1 cells were seeded at a density of 1×10^3 in 96-well plates and incubated for 24h. Compounds 1 and 2 were added in the wells at various concentrations and then incubated at 37 °C. Cells were treated with compound 1 at concentrations of 62.5, 46.875, 31.25, 15.625, 7.81 and 3.9 µM. Cells were treated with compound 2 at concentrations of 62.5, 25.0, 12.5, 6.25 and 3.125 µM. After 24, 48, and 72 h of treatment, MTT solution was added in the wells at a final concentration of 0.5 mg/mL and incubated for 4 h. Cell culture media with MTT was removed and the formazan crystals were dissolved in 100 µl/well isopropanol/HCl (0.4%) and the absorbance was measured at 600 nm using the Infinite® 200 PRO microplate plate reader (Tecan, Zurich, Switzerland).

[2] = system: 3T3-L1 preadipocytes; experiment: Seahorse XF cell metabolism analysis (extracellular acidification rate); type: cell-based, Mouse; settings: 62.5 µM for 24 h
Experimental: Seahorse XF Cell Energy Phenotype Test Kit and Seahorse XF Cell Mito Stress Test Kit were used to measure oxygen consumption rate and extracellular acidification rate on a Seahorse Bioscience XF Analyzer (Agilent Technologies). 3T3-L1 preadipocytes were seeded at 7.5×10^3 per well in growth medium in XF 96 Cell Culture Microplate (Agilent Technologies) two days prior to assay. 24 h prior to the assay, medium was changed and compound 1 was added at concentration of 62.5 µM. The day of the assay, cells were washed once and media was replaced with XF Base Medium (pH 7.4) supplemented with 1 mM pyruvate, 2 mM glutamine and 10 mM glucose. The plate was placed in a 37 °C incubator without CO2 for one hour prior to the assay. Cells were washed a second time right before starting the experiment. After measuring basal oxygen consumption rate and extracellular acidification rate, oligomycin (1.0 µM) and FCCP (1.0 µM) were introduced in real time to measure oxygen consumption rate and extracellular acidification rate under stressed condition. For the baseline extracellular acidification rate the third out of the three baseline measurements was used, while for the stressed condition, the highest measurement after the injections was used. The metabolic potential is calculated as the percentage of stressed extracellular acidification rate to baseline extracellular acidification rate.

[3] = High fat diet-induced obesity mouse model (weight gain, abdominal fat, spleen weight, overall toxicity); type: in vivo; settings: high fat diet mice
Experimental: (§1) All procedures were conducted in compliance with protocols approved by the Animal Care Committee of the University of Crete, School of Medicine (Facility number EL91-BIOexp-06), in conjunction with the Veterinary Department of the Region of Crete, Heraklion, Crete, Greece. C57BL/6 adult male mice were maintained in a 12 h day/night cycle and 21-23 °C conditions. Mice were provided with water and either normal fat diet, or high fat diet (60% energy from fat) ad libitum. All mice were weighed every 48 h.
(§2) Neorogioldiol was first dissolved in 90% carbowaxTM 400, 10% (v/v) absolute ethanol solution and then diluted 1:10 in water for injection. A dose of 0.25 mg neorogioldiol in a total volume of 200 µl was administered intraperitoneally every 48 h in mice in high fat + neorogioldiol group starting from day 1. 4-5 mice were used per group and each experiment was performed twice.
Abdominal fat lobes were weighed, washed in PBS, minced and dissolved with collagenase. They were incubated in 1.5mg/ml collagenase in 1% PBS-BSA, for 30 min at 37 °C. Next, homogenate was centrifuged at 800 rpm for 5 min at room temperature. The upper fatty phase, which contains the adipocytes, was collected and resuspended in TRI Reagent® and RNA isolation was carried out according to the manufacturer's instructions. The cell pellet, which is the stromal vascular fraction, was washed once with PBS and resuspended in TRI Reagent® for RNA isolation.

[4] = Serum biochemical toxicity markers in high fat diet-fed mice; type: in vivo, C57BL/6 adult male mice; settings: intraperitoneal 0.25 mg/mouse every 48 h for 35 days; vs control group
Experimental: as §1, §2
To detect serum levels of alanine transaminase, aspartate transaminase, creatine phosphokinase and lactate dehydrogenase, serum was collected from peripheral blood via cardiac puncture under isoflurane anesthesia. Serum samples were stored at -80 °C. The levels of alanine transaminase, aspartate transaminase, creatine phosphokinase and lactate dehydrogenase were measured by standard enzymatic procedures using an automated biochemical analyzer AU5800 (Beckman).

[5] = system: cytochrome P450 genes (Cyp1a1, Cyp2b10, Cyp3a11, Cyp3a25); experiment: Quantitative PCR of cytochrome P450 genes in liver RNA extracts; type: in vivo, C57BL/6 adult male mice; settings: 0.25 mg/mouse i.p. every 48 h for 35 days; vs high-fat diet mice
Experimental: Adipocytes and preadipocytes were harvested using the TRI Reagent®. RNA isolation was carried out according to the manufacturer's instructions. The purified RNA was quantified using the Nanodrop micro-volume spectrophotometer and 500 ng of each sample were used as a template for reverse transcription. cDNA synthesis was performed using the PrimeScriptTM RT reagent Kit (TaKaRa, RR037A) according to manufacturer's instructions. The cDNA produced by the above described procedure was diluted and used as a template for two-step quantitative PCR in a StepOnePlus™ Real-Time PCR System (Applied Biosystems™, 4376600) for a maximum of 40 cycles, as follows: start step 95 °C for 3 min, repeat steps: 95 °C for 15 s and 60 °C for 30 s. Amplification was performed using KAPA SYBR® FAST Universal qPCR kit (Kapa Biosystems, KK4618) according to manufacturer's instructions. Relative quantitative analysis was accomplished calculating fold-changes of gene expression as 2-(ΔΔCt), where ΔCt is (Ct (gene of interest) - Ct (housekeeping gene)). Ppib was used as internal control gene in 3T3L1 cells and in the fat fraction of mice abdominal fat, Rps9 was used as internal control gene in the stromal vascular fraction of mice abdominal fat and Actb was used as internal control gene in liver samples. Table 1. List of primers used for quantitative real-time PCR analysis.
as §1, §2

[6] = reference [12]; cited from earlier work
[7] = intraperitoneal 0.25 mg/mouse every 48 h for 35 days, vs high fat diet without neorogioldiol

neorogioldiol
concentrations that did not exhibit cytotoxicity ([1]; concentration chosen for further analyses): 62.5 µM | concentration with cytostatic effects ([1]; three-day incubation (24, 48, 72 h), compound 1: after the first 24 h of treatment): 62.5 µM | basal levels of extracellular acidification rate [2]: increasing basal levels | metabolic potential (stressed to baseline extracellular acidification rate) ([2]; after oligomycin and FCCP): decreased the metabolic potential | toxicity in vivo (overall) ([3]; 0.25 mg/mouse i.p. every 48 h for 35 days): did not exhibit any toxicity in vivo | abdominal fat mass [3, 7]: reduced abdominal fat mass | weight gain [3, 7]: suppressed weight gain | alanine transaminase in serum [4]: No difference | aspartate transaminase in serum [4]: No difference | creatine phosphokinase in serum [4]: No difference | lactate dehydrogenase in serum [4]: No difference | Cyp1a1 expression in liver RNA extracts [5]: no difference | Cyp2b10 expression in liver RNA extracts [5]: no difference | Cyp3a11 expression in liver RNA extracts [5]: no difference | Cyp3a25 expression in liver RNA extracts [5]: no difference | anti-inflammatory activity [6]: potent anti-inflammatory activity
